Patent US7354918B2, “Derivatives of 14.15-dihydro 20.21-dinoreburnamenin-14-ol and applications thereof” (Biocortech, priority 2004, dated 2008)

Key:
[1] = test system: voltage dependent K channels; test: Receptorial profile in vitro on 74 receptors and channels; assay type: binding; details: concentration of 10 micromoles
SK+Ca channels = test: as above; assay type: binding; details: concentration of 10 micromoles
[2] = test system: catecholamine transport systems; test: as above; assay type: binding; details: concentration of 10 micromoles
[3] = test system: tyrosine hydroxylase (TH) in the Locus Caeruleus (LC); test: TH protein content in the locus caeruleus, direct transfer of brain sections on nitrocellulose, quantitative immunochemistry; assay type: in vivo, Balb/c mice; details: for Quantity of TH measured in the LC: single dose 20 mg/kg i.p., sacrificed three days after injection, average±sem on the entire structure, percent of the average value of the corresponding control group
[4] = test system: cells expressing hypocretins in the lateral hypothalamus; test: Distribution of cells expressing hypocretins in the lateral hypothalamus by immunocytochemistry; assay type: in vivo, Balb/c mice; details: single dose 20 mg/kg i.p.
Protocol: This property is shared with its direct synthesis precursor, the compound with formula (1). Table 3 below illustrates this type of result the two chemical entities:
The distribution of cells expressing hypocretins in the lateral hypothalamus is studied here with posterior—anterior sampling in consecutive 80 μm thick intervals. The cells are identified by immunocytochemistry using specific antibodies. The two molecules studied were administered by i.p. method with a single dose of 20 mg/kg. The animals were sacrificed three days after injection. A population of about a hundred supernumerary cells is thus identified at the posterior third of the cerebral core.

[5] = test system: voltage dependent Ca channels; test: Receptorial profile in vitro on 74 receptors and channels; assay type: binding; details: concentration of 10 micromoles
[6] = test system: cells containing TH in the LC; test: Number of TH immunopositive cells in the LC by immunohistochemistry; assay type: in vivo, Balb/c mice
Protocol: The number of immunopositive cells for TH is determined starting from coronal brain sections fixed by immunohistochemistry using the same anatomic sampling.
The results in FIG. 2 show the posterior-anterior distribution of the number of cells containing TH in the LC determined by immunohistochemistry obtained in a control group of Balb/c mice and in a group of mice treated by the molecule with formula (Ie1). Each bar represents the average obtained in each 80 μm anatomic interval in each experimental group±sem. **** indicates p<0.0001 determined by an ANOVA II (treatment factor). […] In the entire structure, the average values found were equal to 996±1 and 1250±58 in the control group and in the treated group respectively. (Administered dose 20 mg/kg i.p. sequential treatment at D0, D3, D6, D9 and D12, animals sacrificed at D16).
This phenomenon may be stabilised by an appropriate sequential treatment (for example: one 20 mg/kg i.p. injection every 3 days for 15 days, see FIG. 2). Under these conditions, the increase in the number of positive supernumerary TH cells that appeared in the LC is still maintained for 24 days after the treatment stopped.

[7] = test system: voltage dependent Na channels; test: Receptorial profile in vitro on 74 receptors and channels; assay type: binding; details: concentration of 10 micromoles
[8] = test system: positive TH fibres of the prefrontal cortex; test: Positive TH (noradrenergic) fibres in the prefrontal cortex by immunocytochemistry; assay type: in vivo, Balb/c mouse; details: 5 i.p. injections 20 mg/kg every three days, sacrificed three days after the last injection
From the text: The results in FIG. 3 show the distribution of positive TH fibres on a prefrontal cortex sample of the Balb/c mouse. At left: in a control mouse, the typical orientation (parallel to the surface of the cortex) of noradrenergic fibres identified using an immunocytochemical reaction related to the presence of TH protein, is noticed in the molecular layer of the prefrontal cortex. […] The animals were sacrificed three days after the last injection. The dashed lines mark the limit of the molecular layer of the prefrontal cortex.

M1 receptors = target: T1, M1 receptors (Homo sapiens, UniProt P11229); test: Receptorial profile in vitro on 74 receptors and channels; assay type: binding; details: concentration of 10 micromoles
T1 sequence (P11229 1-460): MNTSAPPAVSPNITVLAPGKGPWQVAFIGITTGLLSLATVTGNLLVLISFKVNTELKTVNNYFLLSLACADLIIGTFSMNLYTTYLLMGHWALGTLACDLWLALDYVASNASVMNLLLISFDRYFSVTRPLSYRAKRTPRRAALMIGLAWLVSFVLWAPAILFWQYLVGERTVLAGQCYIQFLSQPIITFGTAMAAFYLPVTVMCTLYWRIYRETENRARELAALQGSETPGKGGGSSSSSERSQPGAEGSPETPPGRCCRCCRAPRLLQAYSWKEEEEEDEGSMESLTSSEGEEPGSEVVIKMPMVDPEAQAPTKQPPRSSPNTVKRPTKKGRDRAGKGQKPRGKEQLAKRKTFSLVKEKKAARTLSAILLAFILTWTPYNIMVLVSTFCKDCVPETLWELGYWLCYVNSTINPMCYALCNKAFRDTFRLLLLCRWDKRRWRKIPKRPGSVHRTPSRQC

5HT5A receptors = 5HT5A receptors (Homo sapiens, UniProt P47898); test: as above; assay type: binding; details: concentration of 10 micromoles
Chain of 5HT5A receptors (P47898 whole entry): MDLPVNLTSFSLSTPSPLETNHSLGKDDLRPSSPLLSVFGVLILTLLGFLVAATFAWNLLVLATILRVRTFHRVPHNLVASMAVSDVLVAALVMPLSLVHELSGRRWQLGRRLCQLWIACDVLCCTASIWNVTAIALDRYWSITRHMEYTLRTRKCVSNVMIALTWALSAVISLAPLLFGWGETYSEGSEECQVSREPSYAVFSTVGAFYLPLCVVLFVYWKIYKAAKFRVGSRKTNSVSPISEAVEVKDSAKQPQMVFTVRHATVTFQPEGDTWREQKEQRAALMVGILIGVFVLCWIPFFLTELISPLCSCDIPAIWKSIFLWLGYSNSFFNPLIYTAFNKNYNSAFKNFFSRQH

[9] = Biodistribution study (brain, liver) after i.p. and oral administration; assay type: in vivo; details: for share of the cerebral concentration: 45 minutes after p.o. administration of (Ie1) 60 mg/kg
Balb/c variety = test: Tail Suspension Test (TST); assay type: in vivo, Balb/c mice; details: 6-minute period, vehicle 180
Protocol: The behavioural activity test, the Tail Suspension Test (TST) validated by antidepressants (Ref. 7) in the Balb/c variety, was also done for the molecule in the preferred example (Ie1b) at a dose of 1 mg/kg i.p. The experiment given as an example was carried out three days after a single injection and the effect was compared with the effect of imipramine (30 mg/kg i.p. 30 minutes before the test) (see Table 4 below).
The results are the average for n animals.

[10] = Interval 1 (80 μm, posterior-anterior), sacrificed three days after injection
[11] = Interval 2, three days after injection
[12] = Interval 3, three days after injection
[13] = Interval 4, three days after injection
[14] = Interval 5, three days after injection
[15] = Interval 6, three days after injection
[16] = Interval 7, three days after injection
[17] = Interval 8, three days after injection
[18] = Interval 9, three days after injection
[19] = Interval 10, three days after injection
[20] = Interval 11, three days after injection
[21] = Sum of intervals 1-11, three days after injection

With `c1ccc2c(c1)c1c3n2[C@H](OCCN2CCOCC2)C[C@@H]2CCCN(CC1)[C@@H]32` (racemic) [Compound (Ie1), 14,15-dihydro 14-(2-morpholin-4-yl-ethoxy) 20,21-dinoreburnamenin] the “interaction with voltage dependent K channels” value [1] was “no interaction”, the “interaction with SK+Ca channels” value (SK+Ca channels) was “no interaction” and the “interaction with catecholamine transport systems” value [2] was “no interaction”. For the same compound, the “50% effective dose (DE50)” value ([3]; intra-peritoneal (i.p.) method) was 0.5 mg/kg, the “activity relative to direct synthesis precursor with formula (1)” value ([3]; mouse, in vivo) was 30 times and the activity by mouth ([3]; oral) was “active by mouth”. The “50% effective dose (DE50)” value ([3]; oral (p.o.) method) was 1.5 mg/kg, the “Quantity of TH measured in the LC” value [3] was 138 ± 4% and the “Number of cells expressing hypocretins” value [4, 10] was 31.9. For the same compound, the “Number of cells expressing hypocretins” value [4, 11] was 63.7, the “Number of cells expressing hypocretins” value [4, 12] was 125.1 and the “Number of cells expressing hypocretins” value [4, 13] was 210.5. The “Number of cells expressing hypocretins” value [4, 14] was 331.7, the “Number of cells expressing hypocretins” value [4, 15] was 369.9 and the “Number of cells expressing hypocretins” value [4, 16] was 388.7. The “Number of cells expressing hypocretins” value [4, 17] was 322.5, the “Number of cells expressing hypocretins” value [4, 18] was 216.3 and the “Number of cells expressing hypocretins” value [4, 19] was 104.8. The “Number of cells expressing hypocretins” value [4, 20] was 56.0, the “Number of cells expressing hypocretins” value [4, 21] was 2221.1 and the “interaction with voltage dependent Ca channels” value [5] was “no interaction”. For the same compound, the “number of cells containing TH in the LC, entire structure (average)” value ([6]; 20 mg/kg i.p. sequential treatment at D0, D3, D6, D9 and D12, sacrificed at D16, control group 996±1) was 1250±58, the “time for which the increase in positive supernumerary TH cells in the LC is maintained after the treatment stopped” value ([6]; one 20 mg/kg i.p. injection every 3 days for 15 days) was 24 days and the “interaction with voltage dependent Na channels” value [7] was “no interaction”. The “density of noradrenergic fibres in the prefrontal cortex” value [8] was “very significant increase”, the “affinity for M1 receptors” value (M1 receptors) was “moderate affinity link may be suspected” and the “affinity for 5HT5A receptors” value (5HT5A receptors) was “moderate affinity link may be suspected”. For the same compound, the “cerebral concentration/hepatic concentration ratio” value ([9]; 45 minutes after i.p. administration, 20 mg/kg) was 0.41, the “cerebral concentration/hepatic concentration ratio” value ([9]; 45 minutes after os administration, 60 mg/kg) was 0.49 and the “share of the cerebral concentration” value [9] was 89%.

With `OC1C[C@H]2CCCN3CCc4c(n1c1ccccc41)[C@@H]23` (stereo partly drawn) [Compound (1), 14,15 dihydro-20,21-dinoreburnamenin14-ol, reference compound] the “Quantity of TH measured in the LC” value [3] was 120 ± 4%, the “Number of cells expressing hypocretins” value [4, 10] was 60.357 and the “Number of cells expressing hypocretins” value [4, 11] was 116.369. The “Number of cells expressing hypocretins” value [4, 12] was 177.209, the “Number of cells expressing hypocretins” value [4, 13] was 317.237 and the “Number of cells expressing hypocretins” value [4, 14] was 367.454. The “Number of cells expressing hypocretins” value [4, 15] was 377.594, the “Number of cells expressing hypocretins” value [4, 16] was 365.523 and the “Number of cells expressing hypocretins” value [4, 17] was 236.600. For the same compound, the “Number of cells expressing hypocretins” value [4, 18] was 136.166, the “Number of cells expressing hypocretins” value [4, 19] was 60.840 and the “Number of cells expressing hypocretins” value [4, 20] was 23.177. The “Number of cells expressing hypocretins” value [4, 21] was 2238.526, the “presence of the substance after i.p. administration of compound (Ie1)” value ([9]; 45 minutes after i.p. administration of (Ie1) 20 mg/kg) was “undetectable” and the “share of the cerebral concentration” value [9] was 11%.

With `CN(C)CCCN1c2ccccc2CCc2ccccc21` [Imipramine, imipramine, reference compound] the “Average immobilisation time” value (Balb/c variety; 30 mg/kg i.p. 30 minutes before the test) was 70 s.

In the case of `O=C(COC1CC2CCCN3CCc4c(n1c1ccccc41)C23)NCCN1CCOCC1` (racemic) [Compound (If1), (±) (3β, 16α) 14,15-dihydro 14-[(2-morpholin-4-yl-ethylcarbamoyl)-methoxy]20,21-dinoreburnamenin], the “increase of the total TH content in the LC” value ([3]; FIG. 1, 3 days after a single i.p. injection (20 mg/kg), versus control mice) is reported as 13±3% and the “Quantity of TH measured in the LC” value [3] is reported as 113 ± 4%.

In the case of `c1ccc(COC2C[C@@H]3CCCN4CCc5c(n2c2ccccc52)[C@@H]34)cc1` (mixture of isomers) [Compound (Id), (±) (3β, 16α) 14,15-dihydro 14-benzyloxy 20,21-dinoreburnamenin], the “Quantity of TH measured in the LC” value [3] is reported as 129 ± 5%.

In the case of “14,15-dihydro 14-(2-morpholin-4-yl-ethoxy) 20,21-dinoreburnamenin [(Ie1b)]”, the “activity relative to the other enantiomer (Ie1a)” value ([3]; mouse, in vivo) is reported as “twice as active” and the “Average immobilisation time” value (Balb/c variety; 1 mg/kg i.p., three days after a single injection) is reported as 130 s.

With `Cc1noc(COC2C[C@@H]3CCCN4CCc5c(n2c2ccccc52)[C@@H]34)n1` (mixture of isomers) [(Ig1), (±) (3β, 16α) 14,15-dihydro 14-(3-methyl-[1,2,4]oxadiazol-5-ylmethoxy) 20,21-dinoreburnamenin] the “Quantity of TH measured in the LC” value [3] was 118 ± 3%.

For `C1=Cn2c3c(c4ccccc42)CCN2CCC[C@@H]1[C@H]32` [(Ij1)], the “Quantity of TH measured in the LC” value [3] was 123 ± 2%.

With `CCOC(=O)COC1C[C@@H]2CCCN3CCc4c(n1c1ccccc41)[C@@H]23` (mixture of isomers) [(Ia1), (±) (16α) 14,15-dihydro 14-ethoxycarbonylmethoxy-20,21-dinoreburnamenin] the “Quantity of TH measured in the LC” value [3] was 151 ± 5%.
